What was measured:
[1] = molecular target: PRC2 enzyme (Homo sapiens (Human), UniProt O75530); assay: PRC2 enzyme activity, TR-FRET method; type: biochemical
How it was run: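 Enzyme preincubated with compound 30 min at room temperature; reaction started with biotin-labeled histone H3 peptide and SAM, run 4 h at room temperature.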

[2] = tested on: Pfeiffer cells; assay: Growth inhibition of Pfeiffer cells in a long term (14 days), CellTiter-Glo; type: cell-based, Human; details: Homo sapiens, 336 h, 14 days, read-out: Pfeiffer (14 days) IC50
How it was run: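 Pfeiffer DLBCL cells in RPMI 1640 with 10% FBS were treated for 14 days with a 9-point, three-fold compound series (final 0.003-20 μM or 0.3-2000 nM, 0.2% DMSO). Medium and compound were refreshed with cell dilution on days 4, 7 and 11. Viability was read by CellTiter-Glo luminescence, and IC50 values were calculated.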

[3] = Liver microsomal stability (rat); type: in vitro ADME
How it was run: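 Human, mouse and rat liver microsomes were incubated with NADPH and MgCl2 in 0.1 M Tris pH 7.4, with compound at a 0.2 μM working solution. Remaining compound was quantified by LC/MS over the incubation time. The slope of log remaining versus time gave Clint, which was scaled to predicted Cl, Clhep and % MF.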

Chain of PRC2 enzyme (O75530 whole entry): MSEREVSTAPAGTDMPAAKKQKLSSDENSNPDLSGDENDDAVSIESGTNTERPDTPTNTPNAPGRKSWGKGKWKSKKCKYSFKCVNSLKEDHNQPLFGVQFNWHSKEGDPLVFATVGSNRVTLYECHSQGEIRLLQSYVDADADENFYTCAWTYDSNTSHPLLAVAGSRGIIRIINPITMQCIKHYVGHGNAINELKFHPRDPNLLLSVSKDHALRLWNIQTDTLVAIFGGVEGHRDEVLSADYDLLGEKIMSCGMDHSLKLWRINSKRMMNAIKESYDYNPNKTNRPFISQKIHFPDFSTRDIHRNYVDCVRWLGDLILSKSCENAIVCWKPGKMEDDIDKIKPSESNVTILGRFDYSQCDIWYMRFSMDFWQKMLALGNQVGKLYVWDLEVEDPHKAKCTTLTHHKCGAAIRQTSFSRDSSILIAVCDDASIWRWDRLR
Chain of PRC2 enzyme (Q15910 whole entry partner): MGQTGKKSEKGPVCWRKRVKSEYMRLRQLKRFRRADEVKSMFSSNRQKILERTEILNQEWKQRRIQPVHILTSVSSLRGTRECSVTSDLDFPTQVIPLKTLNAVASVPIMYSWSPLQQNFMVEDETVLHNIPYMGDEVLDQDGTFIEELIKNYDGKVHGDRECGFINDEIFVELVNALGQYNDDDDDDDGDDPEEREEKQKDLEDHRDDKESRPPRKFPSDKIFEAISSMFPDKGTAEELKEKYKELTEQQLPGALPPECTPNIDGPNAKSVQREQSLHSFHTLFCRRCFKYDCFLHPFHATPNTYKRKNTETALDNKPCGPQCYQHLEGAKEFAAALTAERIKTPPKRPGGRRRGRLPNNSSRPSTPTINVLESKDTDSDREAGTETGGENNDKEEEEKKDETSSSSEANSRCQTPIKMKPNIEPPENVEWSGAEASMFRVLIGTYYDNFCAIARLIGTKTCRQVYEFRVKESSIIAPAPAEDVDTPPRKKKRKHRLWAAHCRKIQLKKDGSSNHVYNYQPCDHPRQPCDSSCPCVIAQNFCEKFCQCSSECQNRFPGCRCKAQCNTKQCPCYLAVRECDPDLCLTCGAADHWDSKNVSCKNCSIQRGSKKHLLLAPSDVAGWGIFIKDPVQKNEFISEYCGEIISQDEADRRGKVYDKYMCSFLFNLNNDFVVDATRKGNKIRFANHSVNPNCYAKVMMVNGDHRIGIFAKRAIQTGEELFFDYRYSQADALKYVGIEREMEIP
Chain of PRC2 enzyme (Q15022 whole entry partner): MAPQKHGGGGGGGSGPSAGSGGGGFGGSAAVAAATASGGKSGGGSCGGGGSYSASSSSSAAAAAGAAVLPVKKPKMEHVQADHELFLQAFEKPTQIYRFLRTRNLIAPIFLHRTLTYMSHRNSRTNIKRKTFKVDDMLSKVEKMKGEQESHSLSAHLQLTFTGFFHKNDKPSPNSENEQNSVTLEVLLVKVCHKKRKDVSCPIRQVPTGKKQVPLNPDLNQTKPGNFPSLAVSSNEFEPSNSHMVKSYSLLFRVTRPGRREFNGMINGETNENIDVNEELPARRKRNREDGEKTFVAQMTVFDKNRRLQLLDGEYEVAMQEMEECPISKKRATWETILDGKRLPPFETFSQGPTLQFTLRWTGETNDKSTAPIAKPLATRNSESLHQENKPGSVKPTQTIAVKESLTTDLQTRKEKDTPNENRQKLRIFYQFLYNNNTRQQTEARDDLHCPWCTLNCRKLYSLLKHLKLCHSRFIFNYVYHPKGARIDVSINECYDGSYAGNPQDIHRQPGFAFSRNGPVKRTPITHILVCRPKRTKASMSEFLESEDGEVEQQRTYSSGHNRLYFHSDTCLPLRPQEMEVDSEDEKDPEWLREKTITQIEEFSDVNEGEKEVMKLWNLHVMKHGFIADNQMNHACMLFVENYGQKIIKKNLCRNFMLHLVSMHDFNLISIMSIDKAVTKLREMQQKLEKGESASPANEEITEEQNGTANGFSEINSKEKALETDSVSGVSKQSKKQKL

CS(=O)(=O)N1CC=C(c2cnc(NCc3c(F)ccc4c3CCO4)n3cnnc23)CC1 [E-Y13]
IC50 [1]: 19 nM
IC50 [2]: 1 nM
Clearance rate in vivo Clint In Vivo Extpl ([3]; rat liver microsomes): 15.9 mL/min
Intrinsic clearance rate in vivo Clint In Vitro ([3]; rat liver microsomes): 35.2 mL/min/gprot
Liver clearance rate Clint Hep In Vivo Extpl ([3]; rat liver microsomes): 8.85 mL/min
Metabolic bioavailability MF % ([3]; rat liver microsomes): 53.9%
half-life ([3]; rat, liver microsomes, pH 7.4, rat liver microsomes, read-out: Half life T-half): 55.2 min

Source: patent US11013745B2, “Triazolopyrimidine, triazolopyridine compounds, and the composition thereof for treating PRC2-mediated diseases” (SHANGHAI INSTITUTE OF MATERIA MEDICA, CHINESE ACADEMY OF …, priority 2017, dated 2021)
